{
  "source": "paper PMC4594923",
  "about": "“Food Polyphenols Fail to Cause a Biologically Relevant Reduction of COX-2 Activity” (PLoS ONE, 2015)",
  "key": {"[1]": {"system": "arachidonic acid (AA) cascade", "experiment": "plasma oxylipin/PG levels in LPS induced sepsis in mice;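 note: male C57BL/6N mice given LPS, plasma oxylipins quantified by LC-MS after solid-phase extraction, pretreatment or vehicle given intraperitoneally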", "assay_type": "in vivo, C57BL/6N mice"}, "ovine recombinant COX–1": {"biological_target": "T1, ovine recombinant COX–1 (Ovis aries, UniProt P05979)", "T1 sequence (P05979 25-600)": "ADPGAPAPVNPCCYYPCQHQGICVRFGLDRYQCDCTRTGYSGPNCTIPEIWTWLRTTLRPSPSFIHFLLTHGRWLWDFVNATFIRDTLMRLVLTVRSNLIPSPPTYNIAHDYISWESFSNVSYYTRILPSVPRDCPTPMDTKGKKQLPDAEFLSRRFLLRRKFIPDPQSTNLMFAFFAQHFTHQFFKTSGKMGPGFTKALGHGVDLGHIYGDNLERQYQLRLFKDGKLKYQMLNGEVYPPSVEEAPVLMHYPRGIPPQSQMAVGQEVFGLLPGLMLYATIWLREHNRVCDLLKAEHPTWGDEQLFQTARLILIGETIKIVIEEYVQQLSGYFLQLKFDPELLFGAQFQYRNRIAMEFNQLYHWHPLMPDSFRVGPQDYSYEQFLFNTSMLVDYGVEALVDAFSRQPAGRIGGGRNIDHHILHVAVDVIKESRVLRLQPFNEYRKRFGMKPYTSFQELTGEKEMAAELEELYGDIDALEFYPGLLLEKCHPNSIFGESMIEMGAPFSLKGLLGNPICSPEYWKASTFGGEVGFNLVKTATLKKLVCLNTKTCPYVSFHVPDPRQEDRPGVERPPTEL", "experiment": "cell-free COX–1 enzyme assay (PGE2 formation, LC-MS)", "assay_type": "biochemical", "parameters": "purchased Cayman Chemicals/ Biomol, Hamburg, Germany"}, "[2]": {"details": "mice, compound i. p. 100 mg/kg bw 2 h before LPS, 24 h after LPS, vs. LPS group"}, "[3]": {"details": "plasma 24 h after LPS treatment, LPS +, mean"}},
  "note": "Marks after values point to notes of the source that are not given here.",
  "data": [
    {"smiles": "O=c1cc(-c2ccc(O)cc2)oc2cc(O)cc(O)c12", "note": "[Apigenin, apigenin]", "values": [
      {"measurement": "plasma epoxy- and dihydroxy-fatty acid (FA) metabolites of the CYP pathway", "setting": "[1]; [2]", "value": "reduced"},
      {"measurement": "sum of DiHETrEs in plasma", "setting": "[1]; [2]", "value": "decrease"},
      {"measurement": "sum of linoleic acid (LA) derived epoxy-metabolites in plasma", "setting": "[1]; [2]", "value": "decrease"},
      {"measurement": "1a,1b-dihomo-PGF2α concentration in plasma", "setting": "[1]; [3]", "value": 0.27, "unit": "nM"},
      {"measurement": "4,5-DiHDPE concentration in plasma", "setting": "[1]; [3]", "value": 7.8, "unit": "nM"},
      {"measurement": "4-HDHA concentration in plasma", "setting": "[1]; [3]", "value": 1.3, "unit": "nM"},
      {"measurement": "5(6)-EpETrE concentration in plasma", "setting": "[1]; [3]", "value": 6.8, "unit": "nM"},
      {"measurement": "5,6-DiHETrE concentration in plasma", "setting": "[1]; [3]", "value": 0.62, "unit": "nM"},
      {"measurement": "5-HEPE concentration in plasma", "setting": "[1]; [3]", "value": 0.27, "unit": "nM"},
      {"measurement": "5-HETE concentration in plasma", "setting": "[1]; [3]", "value": 2.4, "unit": "nM"},
      {"measurement": "5-iPF2α concentration in plasma", "setting": "[1]; [3]", "value": "< 0.50", "unit": "nM"},
      {"measurement": "5-oxo-ETE concentration in plasma", "setting": "[1]; [3]", "value": "< 1.0", "unit": "nM"},
      {"measurement": "6-keto-PGF1α concentration in plasma", "setting": "[1]; [3]", "value": 2.1, "unit": "nM"},
      {"measurement": "7,8-DiHDPE concentration in plasma", "setting": "[1]; [3]", "value": 0.64, "unit": "nM"},
      {"measurement": "7-HDHA concentration in plasma", "setting": "[1]; [3]", "value": 0.47, "unit": "nM"},
      {"measurement": "8(9)-EpETrE concentration in plasma", "setting": "[1]; [3]", "value": 1.5, "unit": "nM"},
      {"measurement": "8,9-DiHETrE concentration in plasma", "setting": "[1]; [3]", "value": 1.4, "unit": "nM"},
      {"measurement": "8-HDHA concentration in plasma", "setting": "[1]; [3]", "value": 3.0, "unit": "nM"},
      {"measurement": "8-HETE concentration in plasma", "setting": "[1]; [3]", "value": 3.1, "unit": "nM"},
      {"measurement": "8-iPF2a concentration in plasma", "setting": "[1]; [3]", "value": 0.19, "unit": "nM"},
      {"measurement": "9(10)-EpODE concentration in plasma", "setting": "[1]; [3]", "value": "2.2^* nM"},
      {"measurement": "9(10)-EpOME concentration in plasma", "setting": "[1]; [3]", "value": "24^* nM"},
      {"measurement": "9(10)-Epoxystearic acid concentration in plasma", "setting": "[1]; [3]", "value": 18, "unit": "nM"},
      {"measurement": "9,10,13-TriHOME concentration in plasma", "setting": "[1]; [3]", "value": 3.3, "unit": "nM"},
      {"measurement": "9,10-DiHODE concentration in plasma", "setting": "[1]; [3]", "value": 4.0, "unit": "nM"},
      {"measurement": "9,10-DiHOME concentration in plasma", "setting": "[1]; [3]", "value": 34, "unit": "nM"},
      {"measurement": "9,10-Dihydroxystearic acid concentration in plasma", "setting": "[1]; [3]", "value": "47^‡ nM"},
      {"measurement": "9,12,13-TriHOME concentration in plasma", "setting": "[1]; [3]", "value": 38, "unit": "nM"},
      {"measurement": "9-HODE concentration in plasma", "setting": "[1]; [3]", "value": 83, "unit": "nM"},
      {"measurement": "9-HOTrE concentration in plasma", "setting": "[1]; [3]", "value": 6.1, "unit": "nM"},
      {"measurement": "9-oxo-ODE concentration in plasma", "setting": "[1]; [3]", "value": 16, "unit": "nM"},
      {"measurement": "10(11)-EpDPE concentration in plasma", "setting": "[1]; [3]", "value": 1.7, "unit": "nM"},
      {"measurement": "10,11-DiHDPE concentration in plasma", "setting": "[1]; [3]", "value": "0.58^* nM"},
      {"measurement": "10-HDHA concentration in plasma", "setting": "[1]; [3]", "value": 3.0, "unit": "nM"},
      {"measurement": "11(12)-EpETrE concentration in plasma", "setting": "[1]; [3]", "value": 2.0, "unit": "nM"},
      {"measurement": "11,12-DiHETE concentration in plasma", "setting": "[1]; [3]", "value": "< 0.13", "unit": "nM"},
      {"measurement": "11,12-DiHETrE concentration in plasma", "setting": "[1]; [3]", "value": "1.1^* nM"},
      {"measurement": "11-HDHA concentration in plasma", "setting": "[1]; [3]", "value": 0.67, "unit": "nM"},
      {"measurement": "11-HETE concentration in plasma", "setting": "[1]; [3]", "value": 1.8, "unit": "nM"},
      {"measurement": "12(13)-EpODE concentration in plasma", "setting": "[1]; [3]", "value": 1.8, "unit": "nM"},
      {"measurement": "12(13)-EpOME concentration in plasma", "setting": "[1]; [3]", "value": "29^* nM"},
      {"measurement": "12,13-DiHODE concentration in plasma", "setting": "[1]; [3]", "value": 4.5, "unit": "nM"},
      {"measurement": "12,13-DiHOME concentration in plasma", "setting": "[1]; [3]", "value": 114, "unit": "nM"},
      {"measurement": "12-HEPE concentration in plasma", "setting": "[1]; [3]", "value": 25, "unit": "nM"},
      {"measurement": "12-HETE concentration in plasma", "setting": "[1]; [3]", "value": 260, "unit": "nM"},
      {"measurement": "13(14)-EpDPE concentration in plasma", "setting": "[1]; [3]", "value": 1.2, "unit": "nM"},
      {"measurement": "13,14-DiHDPE concentration in plasma", "setting": "[1]; [3]", "value": "0.58^* nM"},
      {"measurement": "13,14-dihydro-15-keto-PGE1 concentration in plasma", "setting": "[1]; [3]", "value": 0.14, "unit": "nM"},
      {"measurement": "13,14dihydro-15-keto-PGF2α concentration in plasma", "setting": "[1]; [3]", "value": 0.41, "unit": "nM"},
      {"measurement": "13-HDHA concentration in plasma", "setting": "[1]; [3]", "value": 0.98, "unit": "nM"},
      {"measurement": "13-HODE concentration in plasma", "setting": "[1]; [3]", "value": "110^* nM"},
      {"measurement": "13-HOTrE concentration in plasma", "setting": "[1]; [3]", "value": 5.7, "unit": "nM"},
      {"measurement": "13-oxo-ODE concentration in plasma", "setting": "[1]; [3]", "value": 2.5, "unit": "nM"},
      {"measurement": "14(15)-EpETE concentration in plasma", "setting": "[1]; [3]", "value": "0.14^† nM"},
      {"measurement": "14(15)-EpETrE concentration in plasma", "setting": "[1]; [3]", "value": "1.5^* nM"},
      {"measurement": "14,15-DiHETE concentration in plasma", "setting": "[1]; [3]", "value": "0.19^† nM"},
      {"measurement": "14,15-DiHETrE concentration in plasma", "setting": "[1]; [3]", "value": 2.2, "unit": "nM"},
      {"measurement": "14-HDHA concentration in plasma", "setting": "[1]; [3]", "value": 71, "unit": "nM"},
      {"measurement": "15(16)-EpODE concentration in plasma", "setting": "[1]; [3]", "value": 1.2, "unit": "nM"},
      {"measurement": "15(S)-HETrE concentration in plasma", "setting": "[1]; [3]", "value": 0.94, "unit": "nM"},
      {"measurement": "15,16-DiHODE concentration in plasma", "setting": "[1]; [3]", "value": 24, "unit": "nM"},
      {"measurement": "15-HETE concentration in plasma", "setting": "[1]; [3]", "value": 2.5, "unit": "nM"},
      {"measurement": "15-oxo-ETE concentration in plasma", "setting": "[1]; [3]", "value": 0.29, "unit": "nM"},
      {"measurement": "16(17)-EpDPE concentration in plasma", "setting": "[1]; [3]", "value": 1.2, "unit": "nM"},
      {"measurement": "16,17-DiHDPE concentration in plasma", "setting": "[1]; [3]", "value": "1.2^* nM"},
      {"measurement": "16-HDHA concentration in plasma", "setting": "[1]; [3]", "value": 1.0, "unit": "nM"},
      {"measurement": "17(18)-EpETE concentration in plasma", "setting": "[1]; [3]", "value": "0.68^* nM"},
      {"measurement": "17,18-DiHETE concentration in plasma", "setting": "[1]; [3]", "value": "1.2^* nM"},
      {"measurement": "17-HDHA concentration in plasma", "setting": "[1]; [3]", "value": 5.2, "unit": "nM"},
      {"measurement": "18-HEPE concentration in plasma", "setting": "[1]; [3]", "value": 0.26, "unit": "nM"},
      {"measurement": "19(20)-EpDPE concentration in plasma", "setting": "[1]; [3]", "value": 9.4, "unit": "nM"},
      {"measurement": "19,20-DiHDPE concentration in plasma", "setting": "[1]; [3]", "value": 11, "unit": "nM"},
      {"measurement": "20-HDHA concentration in plasma", "setting": "[1]; [3]", "value": 2.2, "unit": "nM"},
      {"measurement": "20-HEPE concentration in plasma", "setting": "[1]; [3]", "value": "1.7^* nM"},
      {"measurement": "20-HETE concentration in plasma", "setting": "[1]; [3]", "value": 1.6, "unit": "nM"},
      {"measurement": "EKODE concentration in plasma", "setting": "[1]; [3]", "value": 7.0, "unit": "nM"},
      {"measurement": "PGD2 concentration in plasma", "setting": "[1]; [3]", "value": "< 0.50", "unit": "nM"},
      {"measurement": "PGE2 concentration in plasma", "setting": "[1]; [3]", "value": 1.3, "unit": "nM"},
      {"measurement": "PGF1α concentration in plasma", "setting": "[1]; [3]", "value": 0.10, "unit": "nM"},
      {"measurement": "PGF2α concentration in plasma", "setting": "[1]; [3]", "value": 0.42, "unit": "nM"},
      {"measurement": "TXB2 concentration in plasma", "setting": "[1]; [3]", "value": 1.1, "unit": "nM"},
      {"measurement": "decreased PGE2 formation in comparison to the control, COX–1", "setting": "ovine recombinant COX–1; 100 μM", "value": 31, "unit": "%"},
      {"measurement": "inhibition, COX–1 enzyme assay", "setting": "ovine recombinant COX–1; up to 100 μM", "value": "inhibition < 50%(up to 100 μM)"}
    ]}
  ]
}
